ChEMBL document CHEMBL4651402, “Screening of ~5500 FDA-approved drugs and clinical candidates for anti-SARS-CoV-2 activity” (2021)

Tests used:
[1] = system: SARS-CoV-2; experiment: microbe, parasite or virus in culture; assay type: functional, organism-based, Chlorocebus sabaeus, Vero C1008; details: Severe acute respiratory syndrome coronavirus 2, Vero C1008, 48 h
[2] = system: SARS-CoV-2; experiment: microbe, parasite or virus in culture; details: Severe acute respiratory syndrome coronavirus 2, Vero C1008, 48 h
[3] = in vitro; details: chlorocebus sabaeus, Vero E6 (Vero C1008) cells

SMILES	IC50 ([1]; read-out: IC50)	IC50 ([1]; read-out: pIC50 (converted))	IC50 [2]	IC50 ([2]; read-out: pIC50 (converted))	CC50 at 48 h ([3]; CC50)	CC50 at 48 h ([3]; pCC50)
CC(C)[C@H](N/C(=N\S(=O)(=O)c1ccc(Cl)cc1)N1C[C@@H](c2ccccc2)C(c2ccc(Cl)cc2)=N1)C(N)=O	> 50.1 µM	> 50.1 µM	> 100 µM	> 100 µM	16 µM	15.8 µM
CN1CCC(OC(=O)C(Oc2ccc(Cl)cc2)Oc2ccc(Cl)cc2)CC1 [LIFIBRATE]	> 100 µM	> 100 µM	> 100 µM	> 100 µM	38 µM	38 µM
CCN(CC)CCNC(=O)c1cc(Cl)c(NC(=O)COc2ccc(Cl)cc2)cc1OC [CLOXACEPRIDE]	> 100 µM	> 100 µM	3.63 µM	3.63 µM	2.85 µM	2.82 µM
C=CC(=O)Nc1cc(Nc2nccc(-c3cn(C)c4ccccc34)n2)c(OC)cc1N(C)CCN(C)C [OSIMERTINIB]	> 100 µM	> 100 µM	> 100 µM	> 100 µM	3.09 µM	3.09 µM
Cc1cc(C)c2nc(-c3cnc(NCCCC4CCN(C)CC4)nc3C)[nH]c2c1 [TOREFORANT]	> 50.1 µM	> 50.1 µM	> 25.1 µM	> 25.1 µM	22.4 µM	22.4 µM
CN(C)CC/C=C1/c2ccccc2Sc2ccc(Cl)cc21 [CHLORPROTHIXENE]	> 100 µM	> 100 µM	7.08 µM	7.08 µM	13.8 µM	13.8 µM
CN(C)CC/C=C1\c2ccccc2OCc2c1oc1ccccc21	> 100 µM	> 100 µM	18.2 µM	18.2 µM	12.2 µM	12 µM
CN(C)S(=O)(=O)c1ccc2c(c1)N(CCCN1CCC(CCO)CC1)c1ccccc1S2 [PIPOTIAZINE]	> 100 µM	> 100 µM	13.8 µM	13.8 µM		7.24 µM
CC[C@H]1CN2CC[C@H]1C[C@H]2[C@H](O)c1ccnc2ccc(OC)cc12 [HYDROQUININE]	> 25.1 µM	> 25.1 µM	15.5 µM	15.5 µM	> 25.1 µM	> 25.1 µM
Cc1c(CN2CCN(c3cccc(C(F)(F)F)c3)CC2)cc(-c2ccccc2)n1NC(=O)c1ccncc1 [SUDOTERB]	> 100 µM	> 100 µM	> 100 µM	> 100 µM	~14.3 µM	~14.1 µM
Cc1ccccc1CN1CCN(CCOC(c2ccccc2)c2ccccc2Cl)CC1 (stereo not drawn) [CHLORBENZOXAMINE]	> 25.1 µM	> 25.1 µM	> 100 µM	> 100 µM	15.3 µM	15.1 µM
Cc1cc(O[C@@H](CCC(F)(F)F)c2ccc(C(=O)NCCC(=O)O)cc2)cc(C)c1-c1ccc(C(C)(C)C)cc1 [ADOMEGLIVANT]	> 6.31 µM	> 6.31 µM	> 10 µM	> 10 µM	~10.4 µM	~10.2 µM
COC(=O)N[C@H](C(=O)N1CCC[C@H]1c1ncc(-c2ccc(-c3ccc(-c4cnc([C@@H]5CCCN5C(=O)[C@@H](NC(=O)OC)C(C)C)[nH]4)cc3)cc2)[nH]1)C(C)C	> 100 µM	> 100 µM	> 100 µM	> 100 µM	~19.7 µM	~19.5 µM
CCC(C)n1ncn(-c2ccc(N3CCN(c4ccc(OC[C@H]5CO[C@](Cn6cncn6)(c6ccc(F)cc6F)O5)cc4)CC3)cc2)c1=O (stereo partly drawn) [SAPERCONAZOLE]	> 100 µM	> 100 µM	> 100 µM	> 100 µM	> 100 µM	> 100 µM
CC1=C(/C=C/C(C)=C/C=C/C(C)=C/C(=O)Nc2ccc(O)cc2)C(C)(C)CCC1 [FENRETINIDE]	2.95 µM	2.95 µM	> 100 µM	> 100 µM	5.01 µM	5.01 µM
CC(C)(C)c1ccc(CN2CCN(C(c3ccccc3)c3ccc(Cl)cc3)CC2)cc1 (stereo not drawn) [BUCLIZINE]	20.4 µM	20.4 µM	> 100 µM	> 100 µM	81.3 µM	81.3 µM
Cc1c(-c2ccc(O)cc2)n(Cc2ccc(OCCN3CCCCC3)cc2)c2ccc(O)cc12 [PIPENDOXIFENE]	> 6.31 µM	> 6.31 µM	3.63 µM	3.63 µM	4.62 µM	4.57 µM
COc1cc2c3cc1Oc1c(OC)c(OC)cc4c1[C@@H](Cc1cccc(c1)Oc1ccc(c(O)c1)C[C@@H]3N(C)CC2)N(C)CC4	> 6.31 µM	> 6.31 µM	8.51 µM	8.51 µM	10.2 µM	10.2 µM
CN(C)C(=O)c1cc2cnc(Nc3ccc(N4CCNCC4)cn3)nc2n1C1CCCC1 [RIBOCICLIB]	> 100 µM	> 100 µM	> 100 µM	> 100 µM	38.9 µM	38.9 µM
